Data as given in US11292807B2 (OCEANS LTD., priority 2015, dated 2022).
Where two headings read alike, the source gives them in different places.

How the values were obtained:
PC3 = assay: CIMA assay, cell viability, PC3
MDA-MB [1] = assay: cells; settings: Homo sapiens, read-out: Average cell viability, MDA-MB; for viability at 100 µg/mL: 100 ug/mL
[2] = system: U373 (glioblastoma-astrocytoma); assay: CIMA assay, cell viability, U373
[3] = system: THP-1 (acute monocytic leukemia); assay: CIMA assay, cell viability, THP-1
Protocol: (§1) Stock solutions of the extracts were prepared in dimethylsulfoxide (DMSO) at 10 mg/mL and stored in 200 μl aliquots at −20° C. until analysis. This preparation ensured that the DMSO delivered to cells in culture never exceeded 1%.
(§2) Prepared extracts were assessed following chronic exposure conditions in which cells were seeded at 2×10^3 cells/well (96 well-plate) and incubated with test compounds for 72 h. Each compound was evaluated over a range of concentrations (0, 10, 25, 50 or 100 μg/ml). Cell proliferation was initially assessed using a standard colorimetric indicator of metabolic activity (CIMA) assay. In this assay, tetrazole reduction was evaluated as a measure of metabolic function that evaluates mitochondrial activity to determine the extent of cell proliferation within a culture. This assay is based on the reduction of yellow tetrazolium salt to purple formazan by mitochondrial reductases enzyme in viable cells, resulting in a color changed that confers a change in absorbance.

MDA-MB [4] = settings: MDA-MB
[5] = system: SKOV3 (ovarian adenocarcinoma); assay: CIMA assay, cell viability, SKOV3
A549 (lung carcinoma) = assay: CIMA assay (colorimetric indicator of metabolic activity), cell viability, A549
[6] = system: CCD1079SK (fibroblast, noncancerous but proliferating); assay: CIMA assay, cell viability, CCD1079SK; settings: CCD
Protocol: as §1, §2

[7] = CIMA assay, cell viability, CCD1079SK; settings: human, Average cell viability, CCD
Protocol: as §1, §2

[8] = Homo sapiens, PC-3, read-out: Average cell viability, PC3, 100 ug/mL
[9] = Homo sapiens, U373 MG, read-out: Average cell viability, U373, 100 ug/mL
[10] = Homo sapiens, THP-1, read-out: Average cell viability, THP-1, 100 ug/mL
[11] = Homo sapiens, SK-OV-3, read-out: Average cell viability, SKOV, 100 ug/mL
[12] = Homo sapiens, A549, read-out: Average cell viability, A549, 100 ug/mL
[13] = CCD1079SK fibroblasts (noncancerous, proliferating)

CCCCCC(O)/C=C/C=C/CCCCCCCC(=O)O (stereo not drawn) [77-31-34-6 A, 13-hydroxyoctadeca-9E,11E-dienoic acid]
viability at 100 µg/mL (PC3; [8]): 5% | Fold change in viability AVG (PC3; PC3, 1.00 ug/mL (so in the source)): 0.05 | In vitro activity against cancer cell lines, PC3 AVG (PC3; PC3, 100 ug/mL): 0.05 | viability at 100 µg/mL (MDA-MB [1]): 12% | viability at 100 µg/mL [2, 9]: 4% | Fold change in viability AVG ([2]; U373, 1.00 ug/mL (so in the source)): 0.04 | In vitro activity against cancer cell lines, U373 AVG ([2]; U373, 100 ug/mL): 0.04 | viability at 100 µg/mL [3, 10]: 6% | Fold change in viability AVG ([3]; THP-1, 1.00 ug/mL (so in the source)): 0.07 | In vitro activity against cancer cell lines, THP-1 AVG ([3]; THP-1, 100 ug/mL): 0.07 | Fold change in viability AVG (MDA-MB [4]; 1.00 ug/mL (so in the source)): 0.13 | In vitro activity against cancer cell lines, MDA-MB AVG (MDA-MB [4]; 100 ug/mL): 0.13 | viability at 100 µg/mL [5, 11]: 53% | Fold change in viability AVG ([5]; SKOV, 1.00 ug/mL (so in the source)): 0.57 | In vitro activity against cancer cell lines, SKOV AVG ([5]; SKOV, 100 ug/mL): 0.57 | Fold change in viability AVG (A549 (lung carcinoma); A549, 1.00 ug/mL (so in the source)): 0.08 | In vitro activity against cancer cell lines, A549 AVG (A549 (lung carcinoma); A549, 100 ug/mL): 0.08 | viability at 100 µg/mL (A549 (lung carcinoma); [12]): 7% | Fold change in viability AVG ([6]; 1.00 ug/mL (so in the source)): 0.14 | viability at 72 h, 100 ug/mL [7, 13]: 13%

CC/C=C\C/C=C\C/C=C\C/C=C\C/C=C\CCCC(=O)OCC(COC1OC(CO)C(O)C(O)C1O)OC(=O)CCC/C=C\C/C=C\C/C=C\C/C=C\C/C=C\CC (stereo not drawn) [Compound 7, MGDG C20:5/C20:5]
viability at 1 µg/mL (PC3; Homo sapiens, PC-3, read-out: Average cell viability, PC3, 1 ug/mL): 107% | viability at 10 µg/mL (PC3; Homo sapiens, PC-3, read-out: Average cell viability, PC3, 10 ug/mL): 103% | viability at 50 µg/mL (PC3; Homo sapiens, PC-3, read-out: Average cell viability, PC3, 50 ug/mL): 14% | viability at 100 µg/mL (PC3; [8]): 12% | PC3 AVG (PC3; PC3, sample at 1 ug/mL): 1.11 | PC3 AVG (PC3; PC3, sample at 10 ug/mL): 1.07 | PC3 AVG (PC3; PC3, sample at 50 ug/mL): 0.14 | PC3 AVG (PC3; PC3, sample at 100 ug/mL): 0.13 | Fold change in viability AVG (PC3; PC3, 1 ug/mL): 1.11 | Fold change in viability AVG (PC3; PC3, 10 ug/mL): 1.07 | Fold change in viability AVG (PC3; PC3, 50 ug/mL): 0.14 | Fold change in viability AVG (PC3; PC3, 100 ug/mL): 0.13 | viability at 1 µg/mL (MDA-MB [1]; 1 ug/mL): 106% | viability at 10 µg/mL (MDA-MB [1]; 10 ug/mL): 104% | viability at 50 µg/mL (MDA-MB [1]; 50 ug/mL): 27% | viability at 100 µg/mL (MDA-MB [1]): 24% | viability at 1 µg/mL ([2]; Homo sapiens, U373 MG, read-out: Average cell viability, U373, 1 ug/mL): 120% | viability at 10 µg/mL ([2]; Homo sapiens, U373 MG, read-out: Average cell viability, U373, 10 ug/mL): 108% | viability at 50 µg/mL ([2]; Homo sapiens, U373 MG, read-out: Average cell viability, U373, 50 ug/mL): 6% | viability at 100 µg/mL [2, 9]: 5% | U373 AVG ([2]; U373, sample at 1 ug/mL): 1.22 | U373 AVG ([2]; U373, sample at 10 ug/mL): 1.10 | U373 AVG ([2]; U373, sample at 50 ug/mL): 0.06 | U373 AVG ([2]; U373, sample at 100 ug/mL): 0.05 | Fold change in viability AVG ([2]; U373, 1 ug/mL): 1.22 | Fold change in viability AVG ([2]; U373, 10 ug/mL): 1.10 | Fold change in viability AVG ([2]; U373, 50 ug/mL): 0.06 | Fold change in viability AVG ([2]; U373, 100 ug/mL): 0.05 | viability at 1 µg/mL ([3]; Homo sapiens, THP-1, read-out: Average cell viability, THP-1, 1 ug/mL): 108% | viability at 10 µg/mL ([3]; Homo sapiens, THP-1, read-out: Average cell viability, THP-1, 10 ug/mL): 102% | viability at 50 µg/mL ([3]; Homo sapiens, THP-1, read-out: Average cell viability, THP-1, 50 ug/mL): 52% | viability at 100 µg/mL [3, 10]: 50% | THP-1 AVG ([3]; THP-1, sample at 1 ug/mL): 1.17 | THP-1 AVG ([3]; THP-1, sample at 10 ug/mL): 1.16 | THP-1 AVG ([3]; THP-1, sample at 50 ug/mL): 0.59 | THP-1 AVG ([3]; THP-1, sample at 100 ug/mL): 0.57 | Fold change in viability AVG ([3]; THP-1, 1 ug/mL): 1.17 | Fold change in viability AVG ([3]; THP-1, 10 ug/mL): 1.16 | Fold change in viability AVG ([3]; THP-1, 50 ug/mL): 0.59 | Fold change in viability AVG ([3]; THP-1, 100 ug/mL): 0.57 | MDA-MB AVG (MDA-MB [4]; sample at 1 ug/mL): 1.16 | MDA-MB AVG (MDA-MB [4]; sample at 10 ug/mL): 1.13 | MDA-MB AVG (MDA-MB [4]; sample at 50 ug/mL): 0.30 | MDA-MB AVG (MDA-MB [4]; sample at 100 ug/mL): 0.27 | Fold change in viability AVG (MDA-MB [4]; 1 ug/mL): 1.16 | Fold change in viability AVG (MDA-MB [4]; 10 ug/mL): 1.13 | Fold change in viability AVG (MDA-MB [4]; 50 ug/mL): 0.30 | Fold change in viability AVG (MDA-MB [4]; 100 ug/mL): 0.27 | viability at 1 µg/mL ([5]; Homo sapiens, SK-OV-3, read-out: Average cell viability, SKOV, 1 ug/mL): 126% | viability at 10 µg/mL ([5]; Homo sapiens, SK-OV-3, read-out: Average cell viability, SKOV, 10 ug/mL): 113% | viability at 50 µg/mL ([5]; Homo sapiens, SK-OV-3, read-out: Average cell viability, SKOV, 50 ug/mL): 95% | viability at 100 µg/mL [5, 11]: 46% | Fold change in viability AVG ([5]; SKOV, 1 ug/mL): 1.36 | Fold change in viability AVG ([5]; SKOV, 10 ug/mL): 1.21 | Fold change in viability AVG ([5]; SKOV, 50 ug/mL): 1.02 | Fold change in viability AVG ([5]; SKOV, 100 ug/mL): 0.49 | A549 AVG (A549 (lung carcinoma); A549, sample at 1 ug/mL): 0.72 | A549 AVG (A549 (lung carcinoma); A549, sample at 10 ug/mL): 0.65 | A549 AVG (A549 (lung carcinoma); A549, sample at 50 ug/mL): 0.64 | A549 AVG (A549 (lung carcinoma); A549, sample at 100 ug/mL): 0.40 | Fold change in viability AVG (A549 (lung carcinoma); A549, 1 ug/mL): 0.72 | Fold change in viability AVG (A549 (lung carcinoma); A549, 10 ug/mL): 0.65 | Fold change in viability AVG (A549 (lung carcinoma); A549, 50 ug/mL): 0.64 | Fold change in viability AVG (A549 (lung carcinoma); A549, 100 ug/mL): 0.40 | viability at 1 µg/mL (A549 (lung carcinoma); Homo sapiens, A549, read-out: Average cell viability, A549, 1 ug/mL): 61% | viability at 10 µg/mL (A549 (lung carcinoma); Homo sapiens, A549, read-out: Average cell viability, A549, 10 ug/mL): 56% | viability at 50 µg/mL (A549 (lung carcinoma); Homo sapiens, A549, read-out: Average cell viability, A549, 50 ug/mL): 55% | viability at 100 µg/mL (A549 (lung carcinoma); [12]): 34% | Fold change in viability AVG ([6]; 1 ug/mL): 1.13 | Fold change in viability AVG ([6]; 10 ug/mL): 1.06 | Fold change in viability AVG ([6]; 50 ug/mL): 0.25 | Fold change in viability AVG ([6]; 100 ug/mL): 0.19 | viability at 72 h, 1 ug/mL ([7]; CCD1079SK fibroblast cells (noncancerous, proliferating), 1 ug/mL): 103% | viability at 72 h, 10 ug/mL ([7]; CCD1079SK fibroblasts (noncancerous, proliferating), 10 ug/mL): 97% | viability at 72 h, 50 ug/mL ([7]; CCD1079SK fibroblasts (noncancerous, proliferating), 50 ug/mL): 23% | viability at 72 h, 100 ug/mL [7, 13]: 17%
